Experimental data as given in publication PMC8470279, “Biosynthesis of the Novel Endogenous 15-Lipoxygenase Metabolites N-13-Hydroxy-octodecadienoyl-ethanolamine and 13-Hydroxy-octodecadienoyl-glycerol by Human Neutrophils and Eosinophils” (Cells, 2021).
Read-outs that look alike come from different tables or passages of the source.

Legend:
[1] = biological target: human recombinant CB2 receptor (Homo sapiens, UniProt P34972); assay: CB2 receptor binding assay; details: mean ± SD; for CB2 Receptor Max Tested (% Displacement): 10 µM
Chain of human recombinant CB2 receptor (P34972 whole entry): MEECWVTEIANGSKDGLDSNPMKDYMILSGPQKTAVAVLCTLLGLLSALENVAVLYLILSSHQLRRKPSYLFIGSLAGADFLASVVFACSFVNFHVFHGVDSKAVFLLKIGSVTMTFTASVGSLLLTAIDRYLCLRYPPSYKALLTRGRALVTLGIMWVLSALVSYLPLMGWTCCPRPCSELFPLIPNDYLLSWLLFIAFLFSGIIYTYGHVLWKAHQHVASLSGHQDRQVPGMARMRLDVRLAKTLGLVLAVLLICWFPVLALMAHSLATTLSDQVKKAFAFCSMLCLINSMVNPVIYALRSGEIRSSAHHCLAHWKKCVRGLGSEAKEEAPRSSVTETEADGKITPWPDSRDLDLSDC
Description: (§1) The analysis of CB1 and CB2 receptor binding was performed exactly as described in [21].

[2] = biological target: T1, human recombinant 15-LO-2 (Homo sapiens, UniProt O15296); assay: Metabolism of substrates by recombinant 15-LO-2, LC-MS/MS; type: biochemical; details: 10 µM 1-LG, 15 min, 37 °C
T1 sequence (O15296 1-676): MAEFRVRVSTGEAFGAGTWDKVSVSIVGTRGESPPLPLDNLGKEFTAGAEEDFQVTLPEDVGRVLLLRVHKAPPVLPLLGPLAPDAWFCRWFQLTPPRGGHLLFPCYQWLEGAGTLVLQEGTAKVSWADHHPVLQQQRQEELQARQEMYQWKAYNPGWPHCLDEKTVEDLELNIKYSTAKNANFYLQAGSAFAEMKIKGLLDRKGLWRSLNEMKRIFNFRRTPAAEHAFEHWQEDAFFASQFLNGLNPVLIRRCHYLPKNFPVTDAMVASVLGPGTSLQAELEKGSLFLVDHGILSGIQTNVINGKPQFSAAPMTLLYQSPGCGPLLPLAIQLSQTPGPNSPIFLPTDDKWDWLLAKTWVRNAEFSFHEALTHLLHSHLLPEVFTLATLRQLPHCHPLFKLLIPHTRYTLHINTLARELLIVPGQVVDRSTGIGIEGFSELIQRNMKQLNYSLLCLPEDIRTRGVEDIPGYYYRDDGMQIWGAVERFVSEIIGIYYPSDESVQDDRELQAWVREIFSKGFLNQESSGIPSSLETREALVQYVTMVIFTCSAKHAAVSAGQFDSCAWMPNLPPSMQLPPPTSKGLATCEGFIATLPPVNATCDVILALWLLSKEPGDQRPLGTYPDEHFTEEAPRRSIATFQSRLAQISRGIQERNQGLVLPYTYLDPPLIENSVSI
Description: (§2) Recombinant human 15-LO-1 and 15-LO-2 enzymes were added to HEPES 25 mM + 0.01% Triton (14 μg/mL for 15-LO-1, 56 μg/mL for 15-LO-2). A total of 10 μM of the fatty acids were added to the buffer for 5 min (15-LO-1) or 15 min (15-LO-2), at 37 °C. The final volume of the reaction mix was 100 µL. After the incubation, 50 µL of NaBH4 1M was added to the reaction, for 5 min at 37 °C. The reactions were stopped by adding 0.5 mL of cold (−20 °C) methanol +0.01% acetic acid and kept at −30 °C until further processing.
(§3) Figure 3 Metabolism of 1-LG, LA and LEA by human recombinant 15-LO-1 and 15-LO-2. Human recombinant 15-LO-1 (A–D) or 15-LO-2 (E–H) were incubated at 37 °C in HEPES 25 mM containing 0.01% triton. A total of 10 μM of LA (A,D,E,H); 1-LG (B,D,F,H) or LEA (D,H) were added for 5 min (15-LO-1) or 15 min (15-LO-2). NaBH4 was then added for 5 min and incubations were stopped by the addition of 0.5 mL of cold (−20 °C) MeOH containing 0.01% acetic acid and the internal standards. Samples then were processed for LC-MS/MS analyses as described in methods. Results are the mean (±SEM) of 3 independent experiments.

[3] = biological target: T2, human recombinant 15-LO-1 (Homo sapiens, UniProt P16050); assay: Metabolism of substrates by recombinant 15-LO-1, LC-MS/MS; type: biochemical; details: 10 µM 1-LG, 5 min, 37 °C
T2 sequence (P16050 1-662): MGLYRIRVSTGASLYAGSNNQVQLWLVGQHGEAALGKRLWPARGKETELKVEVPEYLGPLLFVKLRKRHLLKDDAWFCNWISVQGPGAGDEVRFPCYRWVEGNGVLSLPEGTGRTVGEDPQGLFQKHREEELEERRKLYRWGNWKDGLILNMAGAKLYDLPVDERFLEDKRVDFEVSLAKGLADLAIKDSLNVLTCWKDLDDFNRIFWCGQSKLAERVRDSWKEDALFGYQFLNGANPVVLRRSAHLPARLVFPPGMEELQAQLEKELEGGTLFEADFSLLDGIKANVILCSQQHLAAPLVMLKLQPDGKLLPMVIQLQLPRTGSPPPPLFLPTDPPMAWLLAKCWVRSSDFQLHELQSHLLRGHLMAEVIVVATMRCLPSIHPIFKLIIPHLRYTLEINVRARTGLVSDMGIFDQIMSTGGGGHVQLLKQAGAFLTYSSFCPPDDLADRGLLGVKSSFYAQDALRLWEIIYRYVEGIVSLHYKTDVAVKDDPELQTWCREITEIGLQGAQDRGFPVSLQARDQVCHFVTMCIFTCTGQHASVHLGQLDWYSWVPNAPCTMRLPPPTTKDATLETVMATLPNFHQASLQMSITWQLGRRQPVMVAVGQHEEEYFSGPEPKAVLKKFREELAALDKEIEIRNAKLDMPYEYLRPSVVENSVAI
Description: as §2, §3

[4] = biological target: human recombinant CB1 receptor (Homo sapiens, UniProt P21554); assay: CB1 receptor binding assay; details: mean ± SD; for CB1 Receptor Max Tested (% Displacement): 10 µM
Chain of human recombinant CB1 receptor (P21554 whole entry): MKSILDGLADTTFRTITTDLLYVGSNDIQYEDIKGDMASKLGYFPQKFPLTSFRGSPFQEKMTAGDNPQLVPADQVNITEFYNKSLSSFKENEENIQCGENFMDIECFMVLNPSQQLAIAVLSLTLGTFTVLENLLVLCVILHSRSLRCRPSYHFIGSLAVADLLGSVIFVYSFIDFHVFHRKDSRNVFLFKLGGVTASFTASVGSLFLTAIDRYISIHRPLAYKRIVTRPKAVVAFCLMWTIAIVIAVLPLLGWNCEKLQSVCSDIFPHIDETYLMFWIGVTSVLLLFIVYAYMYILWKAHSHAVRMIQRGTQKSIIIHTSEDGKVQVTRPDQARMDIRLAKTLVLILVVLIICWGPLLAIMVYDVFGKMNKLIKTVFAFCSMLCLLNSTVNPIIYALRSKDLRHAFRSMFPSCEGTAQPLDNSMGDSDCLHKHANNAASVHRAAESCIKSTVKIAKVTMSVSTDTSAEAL
Description: as §1

human eosinophils [5] = assay: Biosynthesis of 15-LO metabolites by human eosinophils; details: for Delay before metabolism into 15-lipoxygenase counterpart / Time of maximal levels of 15-lipoxygenase metabolite: 3 µM substrate; for Time of maximal levels of 15-lipoxygenase metabolite: longest time point studied; for Times more metabolite in eosinophils than in neutrophils: same donors, combination of LA, 1-LG and LEA at 3 µM each, 5 min
human neutrophils [6] = assay: Biosynthesis of 15-LO metabolites by human neutrophils
human recombinant TRPV1 = biological target: T3, human recombinant TRPV1 (Homo sapiens, UniProt Q8NER1); assay: TRPV1-mediated intracellular calcium elevation; type: cell-based; details: mean ± SD; for IC50: assayed using 100 nM capsaicin, read-out: Desensibilization (IC50); for Emax: read-out: Efficacy (% Max Response)
T3 construct: expressed in transfected cells
T3 sequence (Q8NER1 whole entry): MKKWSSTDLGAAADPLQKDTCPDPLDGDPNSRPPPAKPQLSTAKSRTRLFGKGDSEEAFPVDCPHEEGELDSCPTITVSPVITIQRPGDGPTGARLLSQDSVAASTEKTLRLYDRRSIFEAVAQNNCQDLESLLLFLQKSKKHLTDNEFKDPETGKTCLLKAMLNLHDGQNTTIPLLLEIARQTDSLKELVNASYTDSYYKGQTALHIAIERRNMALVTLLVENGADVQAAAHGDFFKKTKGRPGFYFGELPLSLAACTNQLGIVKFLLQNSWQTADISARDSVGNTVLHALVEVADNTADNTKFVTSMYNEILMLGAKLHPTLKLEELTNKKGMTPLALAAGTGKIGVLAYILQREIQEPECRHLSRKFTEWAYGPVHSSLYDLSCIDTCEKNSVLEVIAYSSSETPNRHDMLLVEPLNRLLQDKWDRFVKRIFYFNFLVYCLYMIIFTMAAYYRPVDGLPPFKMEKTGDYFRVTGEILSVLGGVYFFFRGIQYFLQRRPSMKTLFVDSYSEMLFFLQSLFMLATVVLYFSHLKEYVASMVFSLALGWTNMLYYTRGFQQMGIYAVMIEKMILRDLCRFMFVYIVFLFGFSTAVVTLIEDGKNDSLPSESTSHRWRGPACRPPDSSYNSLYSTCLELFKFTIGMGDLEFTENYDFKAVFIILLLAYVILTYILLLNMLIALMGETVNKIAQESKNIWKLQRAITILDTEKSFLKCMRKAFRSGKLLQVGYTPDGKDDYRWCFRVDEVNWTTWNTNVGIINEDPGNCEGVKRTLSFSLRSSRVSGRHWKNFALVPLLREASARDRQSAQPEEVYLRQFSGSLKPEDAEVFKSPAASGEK
Excerpt: (§4) These assays we preformed exactly as described in [21].

PPAR-α = biological target: T4, PPAR-α (Homo sapiens, UniProt Q07869); assay: PPAR-α functional (transcriptional) activity assay kit; type: cell-based; details: 30 µM, overnight
T4 construct: purchased
T4 sequence (Q07869 1-468): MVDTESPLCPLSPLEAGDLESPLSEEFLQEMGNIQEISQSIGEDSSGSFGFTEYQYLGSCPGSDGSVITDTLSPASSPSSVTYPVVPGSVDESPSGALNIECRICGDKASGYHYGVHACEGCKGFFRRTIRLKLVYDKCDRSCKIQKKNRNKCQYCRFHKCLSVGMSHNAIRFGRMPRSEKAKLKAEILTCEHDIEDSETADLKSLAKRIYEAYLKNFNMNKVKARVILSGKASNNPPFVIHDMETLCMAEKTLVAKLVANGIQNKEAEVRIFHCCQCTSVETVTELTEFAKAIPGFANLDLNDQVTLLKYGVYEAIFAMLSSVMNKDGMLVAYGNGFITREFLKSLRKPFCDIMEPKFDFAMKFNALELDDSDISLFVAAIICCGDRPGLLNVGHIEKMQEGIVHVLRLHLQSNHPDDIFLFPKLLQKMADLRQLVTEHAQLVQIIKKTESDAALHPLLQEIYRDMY
Description: as §4
(§5) Figure 10 Impact of 13-HODE and 13-HODE-G on PPAR activity. Cells were incubated with 30 µM 13-HODE, 13-HODE-G, or OEA overnight and PPAR activity was measured using the PPAR assay kits according to the manufacturers’ instructions. Rosiglitazone (10 µM) and GW 590735 (100 nM) were utilized as positive controls for the (A) PPAR-γ and (B) PPAR-α assays, respectively. Data represent the mean (± SEM) of three (PPAR-γ) or five (PPAR-α) experiments, each performed in triplicates. p values were obtained by performing a 2-way ANOVA with a Sidak multiple comparison tests. **** p < 0.0001, *** p < 0.001. ns: p > 0.05.

human neutrophils [7] = assay: Hydrolysis/stability of added 13-HODE-EA in neutrophil suspensions; type: in vitro ADME; details: neutrophils 5 × 10^6 cells/mL
human eosinophils [8] = assay: Hydrolysis/stability of added 13-HODE-EA in eosinophil suspensions; type: in vitro ADME; details: eosinophils 10^6 cells/mL
[9] = biological target: T1, human recombinant 15-LO-2; parameters: method as in PMID 33915294; details: previous publication; cited from earlier work
[10] = biological target: T2, human recombinant 15-LO-1; parameters: method as in PMID 33915294; details: previous publication; cited from earlier work
PPAR-γ = biological target: T5, PPAR-γ (Homo sapiens, UniProt P37231); assay: PPAR-γ functional (transcriptional) activity assay kit; type: cell-based; details: 30 µM, overnight
T5 construct: purchased
T5 sequence (P37231 1-505): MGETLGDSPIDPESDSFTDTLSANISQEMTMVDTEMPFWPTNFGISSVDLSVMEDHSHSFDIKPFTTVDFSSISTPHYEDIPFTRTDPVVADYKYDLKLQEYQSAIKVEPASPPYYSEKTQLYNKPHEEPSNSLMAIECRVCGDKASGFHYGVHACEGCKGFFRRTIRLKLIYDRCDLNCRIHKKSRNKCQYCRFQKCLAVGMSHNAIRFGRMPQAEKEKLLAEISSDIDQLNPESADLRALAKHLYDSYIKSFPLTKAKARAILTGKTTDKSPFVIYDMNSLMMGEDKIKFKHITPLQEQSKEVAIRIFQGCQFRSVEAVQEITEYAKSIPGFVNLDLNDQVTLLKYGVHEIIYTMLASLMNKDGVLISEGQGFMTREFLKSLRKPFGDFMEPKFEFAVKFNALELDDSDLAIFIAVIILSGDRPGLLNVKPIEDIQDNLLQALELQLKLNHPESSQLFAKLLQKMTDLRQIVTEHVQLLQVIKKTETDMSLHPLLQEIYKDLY
Description: as §4, §5

[11] = Detection of 13-HODE-G in human samples by LC-MS/MS; details: mean ± SEM, n = 5
human neutrophils [12] = assay: Inhibition of 13-HODE-G and 13-HODE-EA biosynthesis by 15-LO inhibitors in neutrophils; type: cell-based; details: inhibitor 10 µM 5 min, then 3 µM LEA or 1-LG 5 min
Excerpt: Figure 9 Inhibition of 13-HODE-G and 13-HODE-EA biosynthesis by 15-LO inhibitors in human eosinophils and neutrophils. […] Samples then were processed for LC-MS/MS analyses as described in methods. Results are the mean (±SEM) of 4 independent experiments.

[13] = intracellular calcium elevation

## CCCCC/C=C\C/C=C\CCCCCCCC(=O)OCC(O)CO (stereo not shown) [1-LG, 1-linoleoyl-glycerol]
[1]
  CB2 Receptor Max Tested (% Displacement): 10 µM (28.45 ± 9.4) %
  IC50: > 10 µM
  Ki: > 10 µM
[2]
  Efficacy of the reaction (1-LG to 13-HODE-G): 40%
[3]
  Efficacy of the reaction (1-LG to 13-HODE-G): 23%
[4]
  CB1 Receptor Max Tested (% Displacement): 10µM (95.8 ± 16.4) %
  IC50: 2.81 ± 0.85 µM
  Ki: 0.31 ± 0.15 µM
Human eosinophils [5]
  Delay before metabolism into 15-lipoxygenase counterpart: ~ 1 min
  Time of maximal levels of 15-lipoxygenase metabolite: 15 min
Human neutrophils [6]; 3 µM substrate
  Time to biosynthesis of 13-HODE derivatives: 10 to 30 s
Human recombinant TRPV1
  IC50: 2.7 ± 0.3 µM
Human recombinant TRPV1; [13]
  Emax: 46.5 ± 0.9%
Human recombinant TRPV1; intracellular calcium elevation, read-out: Potency (EC50)
  EC50: 0.23 ± 0.02 µM

## CCCCC[C@H](O)/C=C/C=C\CCCCCCCC(=O)O [13-HODE, 13(S)-hydroxy-octodecadienoic acid]
[1]
  CB2 Receptor Max Tested (% Displacement): 10 µM (38.34 ± 5.4) %
  IC50: > 10 µM
  Ki: > 10 µM
[4]
  CB1 Receptor Max Tested (% Displacement): 10 µM (7.56 ± 2.3) %
  IC50: > 10 µM
  Ki: > 10 µM
Human eosinophils [5]
  Times more metabolite in eosinophils than in neutrophils: ~ 30 times
PPAR-α
  Stimulation of PPAR-α transcriptional activity: robust effect
Human recombinant TRPV1
  IC50: > 50 µM
Human recombinant TRPV1; [13]
  Emax: < 10%

## CCCCC[C@H](O)/C=C/C=C\CCCCCCCC(=O)NCCO [13-HODE-EA, N-13-hydroxy-octodecadienoyl-ethanolamine]
Human neutrophils [7]
  Remaining after 15 min: 60%
Human eosinophils [8]
  Remaining after 15 min: 90%
Human eosinophils [5]
  Times more metabolite in eosinophils than in neutrophils: ~ 500 times
[9]
  13-HODE-EA/13-HODE ratio: ~ 3
[10]
  13-HODE-EA/13-HODE ratio: ~ 3.5

## CCCCC[C@H](O)/C=C/C=C\CCCCCCCC(=O)OCC(O)CO (stereo partly shown) [13-HODE-G, 13-hydroxy-octodecadienoyl-glycerol]
[1]
  CB2 Receptor Max Tested (% Displacement): 10 µM (33.58 ± 21.3) %
  IC50: > 10 µM
  Ki: > 10 µM
PPAR-γ
  Stimulation of PPAR-γ transcriptional activity: did not stimulate
[11]
  Level in human epidermis samples: 21.9 ± 6.2 fmol/mg tissue
[4]
  CB1 Receptor Max Tested (% Displacement): 10 µM (18.90 ± 6.1) %
  IC50: > 10 µM
  Ki: > 10 µM
Human eosinophils [5]
  Times more metabolite in eosinophils than in neutrophils: ~ 60 times
PPAR-α
  Stimulation of PPAR-α transcriptional activity: did not stimulate
Human recombinant TRPV1
  IC50: > 50 µM
Human recombinant TRPV1; [13]
  Emax: < 10%

## CCCCC/C=C\C/C=C\CCCCCCCC(=O)O [LA, Linoleic acid]
Human eosinophils [5]
  Time of maximal levels of 15-lipoxygenase metabolite: 15 min
Human neutrophils [6]; 3 µM LA
  Time of peak 13-HODE biosynthesis: 10 s
Human neutrophils [6]; 3 µM substrate
  Time to biosynthesis of 13-HODE derivatives: 10 to 30 s

## CCCCC/C=C\C/C=C\CCCCCCCC(=O)NCCO [LEA, N-linoleoyl-ethanolamine]
Human eosinophils [5]
  Delay before metabolism into 15-lipoxygenase counterpart: ~ 1 min
  Time of maximal levels of 15-lipoxygenase metabolite: 15 min
Human neutrophils [6]
  Ratio 13-HODE/13-HODE-EA: 2.67 ± 0.590
  Time to biosynthesis of 13-HODE derivatives: 10 to 30 s

## CC(Cc1ccc(O)c(O)c1)C(C)Cc1ccc(O)c(O)c1 (stereo not shown) [NDGA]
Human neutrophils [12]
  Inhibition of biosynthesis of the investigated 15-LO metabolites: did not inhibit
